# Values quoted from earlier work in US12716021B2, “Aqueous modified acid compositions and methods of using the same” (FLUID ENERGY GROUP LTD., priority 2019, dated 2026).
# Conditions: death in 2-3 minutes
smiles,measurement,value
"Cl [hydrogen chloride gas, hydrogen chloride]",levels at which death can occur,1300-2000 ppm
